Each block holds one compound with its values, some of them ahead of it.
Legend:
[1] = tested on: A549 (human lung carcinoma); assay: In vivo anticancer activity, A549 tumor transplantation model; set-up: species or system BALB/c nude mice (human tumor xenograft); conditions: for IR (%): Table 20
Description: (§1) Male BALB/c nude mice (4-week old) used in human tumor transplantation studies were purchased from Central Animal Laboratory Inc. (Korea) or Orient Bio Inc. (Korea). The animals were permitted ad libitum access to sterile feed and water in a sterile breeding system at 23+0.5° C.
(§2) For use in tumor transplantation studies, the human cancer cell lines HCT116 (human colorectal carcinoma, CCL-247), PC-3 (human prostate adenocarcinoma, CRL-1435), and A549 (human lung carcinoma, CCL-185) were purchased from ATCC (American Type Culture Collection, Rockville, Md., USA).
(§3) HCT116 cells were cultured in an air incubator under conditions of 37° C. and 5% CO2 using McCoy'SA medium (Gibco BRL) containing 10% heat-inactivated fetal bovine serum (Gibco BRL) and 1% antibiotics-antymycotics (Gibco BRL). Cell lines other than the HCT116 cell line were cultured in an air incubator under conditions of 37° C. and 5% CO2 using RPM1640 medium (Gibco BRL) containing 10% heat-inactivated fetal bovine serum (Gibco BRL) and 1% antibiotics-antymycotics (Gibco BRL).
(§4) Studies on the in vivo transplantation of human cancer cells were carried out in the following manner. Human cancer cells (HCT116, PC-3, and A549) that proliferated in vitro were injected subcutaneously into the abdominal region of BALB/c nude mice and allowed to proliferate in vivo. 20-25 days after the injection, the mice were sacrificed by cervical dislocation, and the solid cancer that proliferated in each of the mice was isolated aseptically, and connective or necrotic tissue and skin was removed therefrom, thus collecting a fresh cancer tissue. 50 mg of a fragment was taken aseptically from the cancer tissue and inserted into a 16-gauge trocar which was then transplanted subcutaneously into the upper abdominal region of mice.
(§5) 15-30 days after the human cancer cell lines have been transplanted into the BALB/c nude mice, only mice in which the cancer cells have proliferated to a given size were selected and used in the experiment. When the tumor size in each of the test groups reached 100-200 mm^3 after cancer cell transplantation, the experiment was started.
(§6) The anticancer effect of each drug was evaluated based on the inhibition rate (IR %) of tumor volume that indicates the tumor volume at reference date in comparison with control groups. […] Tumor size=(short diameter)×(long diameter)/2 I.R.(%)=[1−(mean tumor size of drug-administered group)/(mean tumor size of control group)]×100

[2] = tested on: PC-3 (human prostate adenocarcinoma); assay: In vivo anticancer activity, PC-3 tumor transplantation model; set-up: species or system BALB/c nude mice (human tumor xenograft); conditions: for IR (%): Table 21
Description: as §1, §2, §3, §4, §5, §6

HL60 cell line = assay: Inhibitory effect on growth of HL60 cell line (MTT); type: cell-based; conditions: Homo sapiens, HL-60, 72 h, 3 days culture
Description: In the culture of HL60 cells, 10% FBS-containing RPMI1640 medium was used Each of test substances was serially diluted in DMSO to a concentration of 10 mg/ml and serially diluted in PBS to a final concentration ranging from 100 μg/ml to 0.03 μg/ml. 20 μl (micro-liter) of each of the serially diluted test substances and 180 μl (micro-liter) of a medium containing 60×10^4 cells/ml were added to a 96-well plate and cultured under conditions of 37° C. and 5% CO2 for 3 days. After completion of the culture, 50 μl (micro-liter) of a solution of 1.25 mg/ml MTT (3-(4,5-dimethylthiazol-2-yl)-2,5-diphenyltetrazolium bromide) in PBS was added to each well of the plate and incubated at 37° C. for 3 hours. The formed formazan crystal was dissolved in 150 μl (micro-liter) of DMSO, and the absorbance at 570 nm was measured.

P450 (CYP3A4) = P450 (CYP3A4) (Homo sapiens, UniProt P08684); assay: P450 (CYP3A4) inhibitory activity (BFC fluorescent substrate); type: in vitro ADME; conditions: FIG. 6; in words
Chain of P450 (CYP3A4) (P08684 whole entry, species assumed): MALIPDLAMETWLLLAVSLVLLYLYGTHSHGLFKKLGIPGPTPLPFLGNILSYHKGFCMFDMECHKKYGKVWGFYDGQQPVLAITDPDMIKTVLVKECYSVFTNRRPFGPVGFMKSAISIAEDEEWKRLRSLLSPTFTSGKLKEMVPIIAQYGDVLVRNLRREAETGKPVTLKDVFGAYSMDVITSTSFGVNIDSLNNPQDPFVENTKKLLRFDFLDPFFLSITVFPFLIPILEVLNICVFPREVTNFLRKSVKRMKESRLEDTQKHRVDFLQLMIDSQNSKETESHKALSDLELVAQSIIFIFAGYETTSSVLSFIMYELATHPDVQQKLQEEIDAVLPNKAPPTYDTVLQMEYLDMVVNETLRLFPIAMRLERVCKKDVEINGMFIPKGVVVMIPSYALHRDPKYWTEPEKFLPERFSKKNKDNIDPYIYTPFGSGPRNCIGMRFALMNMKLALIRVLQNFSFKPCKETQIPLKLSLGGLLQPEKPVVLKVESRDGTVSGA
Description: P450 (CYP3A4) is a metabolic enzyme, and non-inhibition of the enzyme by a test compound means that the test substance has a low possibility of causing side effects by interaction with other drugs. Each of compounds used in the test was dissolved in DMSO (10 mg/ml), and the dilution of each test substance to 2×10^−2 mg/ml was additionally performed in 200 μl (micro-liter) of a test system containing an assay buffer. The final solvent concentration was not higher than 2%. The CYP3A4 protein inhibitory test system included a total assay volume (100 μl (micro-liter)) of a NADPH production system (3.3 mM glucose-6-phosphate, 0.4 units/ml glucose-6-phosphate dehydrogenase, 1.3 mM NADP+ and 3.3 mM MgCl2.6H2O in assay buffer) and a test compound in each well of a 96-well plate. After pre-incubation at 37° C. for 10 minutes, 100 μl (micro-liter) of a KPO4 assay buffer containing […] P450 protein and 50 uM BFC (7-benzyloxy-trifluoromethylcoumarin) fluorescent probe substrate was added to the test system, and an enzyme reaction in the test system having a total assay volume of 200 μl (micro-liter) was initiated. […] Irradiation with fluorescence was carried out at an excitation wavelength of 409 nm and an emission wavelength of 530 nm.

[3] = tested on: HCT116 (human colorectal carcinoma); assay: In vivo anticancer activity, HCT116 tumor transplantation model; set-up: species or system BALB/c nude mice (human tumor xenograft)
Description: as §1, §2, §3, §4, §5, §6

in vivo = conditions: BALB/c nude, mouse, ip
[4] = Maximum tolerated dose in the HCT116 xenograft experiments; conditions: BALB/c nude, mouse, in vivo, ip
HDAC enzymes = assay: Effects against HDAC enzymes (BIOMOL kit, Hela nuclear extract); type: biochemical; conditions: 37° C. 1 hour
Description: To measure effects against HDAC enzymes, a kit (BIOMOL International, LP) was used Each of test substances was dissolved in DMSO to a concentration of 10 mg/ml, and an assay buffer, an enzyme solution, a substrate and a staining reagent were prepared. […] Also, the staining reagent was a mixture of assay buffer (19/20), developer (1/20) and TSA (1/100). The assay buffer, the enzyme solution, the test substance and the substrate were added sequentially to a 96-well plate, stirred on a rocker for 3 minutes, and then incubated at 37° C. for 1 hour. After completion of the incubation, the staining reagent was added, and the mixture was stirred on a rocker for 1 minute and then incubated at 37° C. for 20 minutes (the staining reagent was mixed before addition).

[5] = BALB/c nude, mouse, in vivo, ip, 2 weeks
[6] = 60 mg/kg, b.i.wk(Mon, Thu), 3 wks, ip
[7] = 80 mg/kg, b.i.wk(Mon, Thu), 3 wks, ip
[8] = 100 mg/kg, b.i.wk(Mon, Thu), 3 wks, ip
[9] = Table 18, 80 mg/kg/day, qd x 5, 2 wks, ip
[10] = Table 19, 40 mg/kg/day, qd x 5, 2 wks, ip
[11] = Table 19, 60 mg/kg/day, qd x 5, 2 wks, ip

Compound: Cc1cc2cc(-c3ccc(N(CCCCCCC(=O)NO)C(=O)N4CCN(C)CC4)cc3)ccc2[nH]1 [Compound 334, N-(7-(hydroxyamino)-7-oxoheptyl)-4-methyl-N-(4-(2-methyl-1H-indol-5-yl)phenyl)piperazine-1-carboxamide]
MTD at 2 weeks (in vivo): 60 mg/kg
IC50 (HL60 cell line): 10 to 20 nM
IR (%) [3, 10]: 47%
IR (%) [3, 11]: 66%

Compound: CCN1CCN(C(=O)N(CCCCCCC(=O)NO)c2ccc(-c3ccc4cnn(C)c4c3)cc2)CC1 [Compound 336, 4-ethyl-N-(7-(hydroxyamino)-7-oxoheptyl)-N-(4-(1-methyl-1H-indazol-6-yl)phenyl)piperazine-1-carboxamide]
MTD at 2 weeks (in vivo): 80 mg/kg
IC50 (HL60 cell line): 50 to 100 nM
IR (%) [3, 10]: 56%
IR (%) [3, 11]: 75%
IR (%) ([3]; Table 19, 80 mg/kg/day, qd x 5, 2 wks, ip): 78%
colon cancer (HCT 116) inhibitory effect compared to control drugs ([3]; ip, qd x 5, 2 wks, in words): excellent inhibitory effects on colon cancer

Compound: CN1CCN(C(=S)N(CCCCCCC(=O)NO)c2ccc(-c3ccc4cc[nH]c4c3)cc2)CC1 [Compound 357, 7-(N-(4-(1H-indol-6-yl)phenyl)-4-methylpiperazine-1-carbothioamido)-N-hydroxyheptanamide]
IC50 (HL60 cell line): 50 to 100 nM

Compound: Cc1[nH]c2ccccc2c1CCNCc1ccc(/C=C/C(=O)NO)cc1 [LBH 589, Panobinostat, reference compound]
IR (%) ([1]; 10 mg/kg/day, qd x 5, 3 wks): 58%
IR (%) ([2]; 10 mg/kg/day, qd x 5, 3 wks): 48%
MTD at 2 weeks (in vivo): 10 mg/kg
IC50 (HL60 cell line): 20 to 50 nM
IR (%) ([3]; Table 18, 5 mg/kg/day, qd x 5, 2 wks, ip): 40%
IR (%) ([3]; Table 18, 10 mg/kg/day, qd x 5, 2 wks, ip): 65%
IR (%) ([3]; Table 19, 5 mg/kg/day, qd x 5, 2 wks, ip): 40%
IR (%) ([3]; Table 19, 10 mg/kg/day, qd x 5, 2 wks, ip): 65%
IR (%) ([3]; Table 22, 50 mg/kg/day, qd x 5, 3 wks, p.o): 0%

Compound: Nc1ccccc1NC(=O)c1ccc(CNc2nccc(-c3cccnc3)n2)cc1 [MGCD 0103, reference compound]
IR (%) ([3]; Table 22, 120 mg/kg/day, qd x 5, 3 wks, p.o): 50%

Compound: O=C(/C=C/c1cccc(S(=O)(=O)Nc2ccccc2)c1)NO [PXD 101, Belinostat, reference compound]
MTD at 2 weeks [4]: 80 mg/kg
IC50 (HDAC enzymes): 100 to 200 nM
IC50 (HL60 cell line): 100 to 200 nM
IR (%) [3, 9]: 38%

Compound: O=C(CCCCCCC(=O)Nc1ccccc1)NO [SAHA, vorinostat, reference compound]
maximum tolerated doses (MTDs) [5]: 100 mg/kg
IR (%) ([3]; Table 18, 100 mg/kg/day, qd x 5, 2 wks, ip): 46%
IR (%) ([3]; Table 22, 200 mg/kg/day, qd x 5, 3 wks, p.o): 26%

The next lines start with results.

IC50 (HL60 cell line): 50 to 100 nM
P450 3A4 inhibition (P450 (CYP3A4)): did not inhibit
P450 3A4 inhibitory activity relative to LBH 589 (P450 (CYP3A4)): lower than that of LBH 589
Compound: CN1CCN(C(=O)N(CCCCCCC(=O)NO)c2ccc(-c3ccc4cnn(C)c4c3)cc2)CC1 [Compound 312, N-(7-(hydroxyamino)-7-oxoheptyl)-4-methyl-N-(4-(1-methyl-1H-indazol-6-yl)phenyl)piperazine-1-carboxamide]
IR (%) [1, 6]: 50%
IR (%) [1, 7]: 56%
IR (%) [1, 8]: 71%
inhibitory effect against non-small cell lung cancer (A549) ([1]; administered twice a week, in words): excellent inhibitory effect
IR (%) [2, 6]: 39%
IR (%) [2, 7]: 39%
IR (%) [2, 8]: 59%
inhibitory effects against prostate cancer (PC-3) compared to LBH 589 ([2]; twice a week for 3 weeks, in words): excellent inhibitory effects
IR (%) ([3]; Table 18, 20 mg/kg/day, qd x 5, 2 wks, ip): 51%
IR (%) ([3]; Table 18, 40 mg/kg/day, qd x 5, 2 wks, ip): 58%
IR (%) ([3]; Table 18, 60 mg/kg/day, qd x 5, 2 wks, ip): 70%
IR (%) [3, 9]: 81%
IR (%) ([3]; Table 22, 150 mg/kg, b.i.wk(Mon, Thu), 3 wks, p.o): 52%
IR (%) ([3]; Table 22, 180 mg/kg, b.i.wk(Mon, Thu), 3 wks, p.o): 55%
IR (%) ([3]; Table 22, 210 mg/kg, b.i.wk(Mon, Thu), 3 wks, p.o): 69%
colon cancer (HCT 116) inhibitory effect compared to control drugs ([3]; ip, qd x 5, 2 wks, in words): excellent colon cancer inhibitory effects
inhibitory effect against colon cancer (HCT116) upon oral administration compared to LBH 589, SAHA and MGCD0103 ([3]; oral, twice a week for 3 weeks, in words): excellent inhibitory effect

IC50 (HL60 cell line): 20 to 50 nM
Compound: CN1CCN(C(=O)N(CCCCCCC(=O)NO)c2ccc(-c3ccc4c(cnn4C)c3)cc2)CC1 [Compound 350, N-(7-(hydroxyamino)-7-oxoheptyl)-4-methyl-N-(4-(1-methyl-1H-indazol-5-yl)phenyl)piperazine-1-carboxamide]

IC50 (HL60 cell line): 20 to 50 nM
Compound: CCN1CCN(C(=O)N(CCCCCCC(=O)NO)c2ccc(-c3ccc4c(cnn4C)c3)cc2)CC1 [Compound 351, 4-ethyl-N-(7-(hydroxyamino)-7-oxoheptyl)-N-(4-(1-methyl-1H-indazol-5-yl)phenyl)piperazine-1-carboxamide]

IC50 (HL60 cell line): 20 to 50 nM
Compound: CN1CCN(C(=S)N(CCCCCCC(=O)NO)c2ccc(-c3ccc4[nH]ccc4c3)cc2)CC1 [Compound 358, 7-(N-(4-(1H-indol-5-yl)phenyl)-4-methylpiperazine-1-carbothioamido)-N-hydroxyheptanamide]

IC50 (HL60 cell line): 20 to 50 nM
Compound: CN1CCN(C(=S)N(CCCCCCC(=O)NO)c2ccc(-c3ccc4c(cnn4C)c3)cc2)CC1 [Compound 359, N-hydroxy-7-(4-methyl-N-(4-(1-methyl-1H-indazol-5-yl)phenyl)piperazine-1-thiocarboamido)heptanamide]
